Where “and” joins values, the source holds several entries; their conditions need not be identical. Identical values can stand only once. Like-named read-outs stand apart in the source and are kept apart here.
Key:
CDK12–cyclin K and DDB1 = biological target: T1, CDK12–cyclin K and DDB1 (Homo sapiens, UniProt Q16531+Q9NYV4, K965R); test: TR-FRET ternary complex formation assay (compound titration); format: binding; details: for EC50: read-out: TR-FRET EC50
T1 construct: His6–CDK12 (a.a. 713–1,052); full-length or beta-propeller B domain deletion (ΔBPB: a.a. 396–705 deleted) constructs of His6–DDB1ΔBPB, StrepII–Avi–DDB1, or His6–Spy–DDB1; made in house; host or cells: Trichoplusia ni High Five insect cells (baculovirus)
How it was run: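 Signal was the ratio of 520 nm to 490 nm fluorescence, measured after a 70 μs delay that reduced background.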

[1] = system: cyclin K–eGFP degradation reporter; test: Cyclin K reporter stability analysis (dual-color cyclin K–eGFP reporter); format: cell-based, human; details: source data sheet correlations; read-out: DC50
How it was run: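 Values reflect cyclin K–eGFP levels after a 5 h exposure, expressed as the green-to-red fluorescence ratio and scaled to three vehicle-treated controls. Measurements came from HEK293T–Cas9 reporter cells by flow cytometry.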

HEK293T cells = test: Drug sensitivity assay (CellTiter-Glo viability) with or without MLN4924 pretreatment; format: cell-based, human; details: Supplementary Table 2
How it was run: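 HEK293T–Cas9, 0.15 × 10^6 ml^−1; pretreat DMSO vs 100 nM MLN4924; drugs dispensed after 2 h; 3 d exposure; CellTiter-Glo; viability vs DMSO control.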

CDK12–cyclin K = CDK12–cyclin K (Homo sapiens, UniProt Q9NYV4); test: Lanthascreen kinase binding assay, CDK12; details: for Lanthascreen raw signal, sheet CDK12: series r37, duplicates
Procedure: (§1) Lanthascreen experiments were performed using commercially available reagents (Thermo Fisher) and according to the manufacturer’s instructions.

CDK9–cyclin T = biological target: T2, CDK9–cyclin T (Homo sapiens, UniProt P50750); test: Lanthascreen kinase binding assay, CDK9; details: for Lanthascreen TR-FRET signal (raw ratio), sheet CDK9: third titration set (r25), duplicates
T2 construct: purchased Thermo Fisher
Procedure: as §1

CDK2–cyclin A = biological target: T3, CDK2–cyclin A (Homo sapiens, UniProt P24941); test: Lanthascreen kinase binding assay, CDK2; details: for Lanthascreen signal, sheet CDK2: raw replicates, experiment r36-r46
T3 construct: purchased Thermo Fisher
Procedure: as §1

T2 sequence (P50750 whole entry): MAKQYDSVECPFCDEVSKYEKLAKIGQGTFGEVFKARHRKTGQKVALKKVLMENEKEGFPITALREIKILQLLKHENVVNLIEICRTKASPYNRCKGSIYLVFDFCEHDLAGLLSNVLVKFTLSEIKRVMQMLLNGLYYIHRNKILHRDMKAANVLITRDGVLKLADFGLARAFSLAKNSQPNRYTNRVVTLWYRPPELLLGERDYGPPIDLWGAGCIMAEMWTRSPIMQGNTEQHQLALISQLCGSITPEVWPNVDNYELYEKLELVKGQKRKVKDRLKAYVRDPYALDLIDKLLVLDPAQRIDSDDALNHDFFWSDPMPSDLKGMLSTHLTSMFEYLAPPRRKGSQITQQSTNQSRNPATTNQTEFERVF
T2 sequence (O60563 whole entry partner): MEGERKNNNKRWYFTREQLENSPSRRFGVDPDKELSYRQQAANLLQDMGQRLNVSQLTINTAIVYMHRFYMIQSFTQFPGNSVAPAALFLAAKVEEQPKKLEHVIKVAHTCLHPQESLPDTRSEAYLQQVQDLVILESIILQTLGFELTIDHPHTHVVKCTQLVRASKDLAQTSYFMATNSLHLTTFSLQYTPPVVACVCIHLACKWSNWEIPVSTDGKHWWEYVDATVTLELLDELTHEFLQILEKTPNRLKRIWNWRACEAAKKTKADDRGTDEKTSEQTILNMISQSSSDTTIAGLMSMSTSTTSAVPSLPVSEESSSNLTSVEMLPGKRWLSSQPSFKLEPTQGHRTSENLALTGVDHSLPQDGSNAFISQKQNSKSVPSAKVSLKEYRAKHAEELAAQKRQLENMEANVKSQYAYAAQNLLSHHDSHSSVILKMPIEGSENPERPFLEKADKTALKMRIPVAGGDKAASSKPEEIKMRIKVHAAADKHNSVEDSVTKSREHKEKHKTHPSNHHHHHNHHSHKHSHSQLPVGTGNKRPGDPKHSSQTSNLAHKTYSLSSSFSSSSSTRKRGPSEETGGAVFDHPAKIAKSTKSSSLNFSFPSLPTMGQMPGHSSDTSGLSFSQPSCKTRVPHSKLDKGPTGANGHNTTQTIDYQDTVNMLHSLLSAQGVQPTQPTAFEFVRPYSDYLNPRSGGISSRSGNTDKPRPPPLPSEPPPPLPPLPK
Chain of CDK12–cyclin K (Q9NYV4 713-1052): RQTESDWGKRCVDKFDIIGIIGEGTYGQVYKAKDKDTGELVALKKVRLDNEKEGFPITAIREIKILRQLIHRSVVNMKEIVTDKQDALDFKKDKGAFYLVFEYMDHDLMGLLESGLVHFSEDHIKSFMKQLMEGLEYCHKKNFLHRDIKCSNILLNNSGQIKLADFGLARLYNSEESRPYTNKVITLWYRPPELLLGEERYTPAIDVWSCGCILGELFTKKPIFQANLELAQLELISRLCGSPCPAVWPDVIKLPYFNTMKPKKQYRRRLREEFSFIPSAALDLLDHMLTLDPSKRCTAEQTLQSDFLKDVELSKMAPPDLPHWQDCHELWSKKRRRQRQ
Chain of CDK12–cyclin K (O75909 1-267 partner limits assumed): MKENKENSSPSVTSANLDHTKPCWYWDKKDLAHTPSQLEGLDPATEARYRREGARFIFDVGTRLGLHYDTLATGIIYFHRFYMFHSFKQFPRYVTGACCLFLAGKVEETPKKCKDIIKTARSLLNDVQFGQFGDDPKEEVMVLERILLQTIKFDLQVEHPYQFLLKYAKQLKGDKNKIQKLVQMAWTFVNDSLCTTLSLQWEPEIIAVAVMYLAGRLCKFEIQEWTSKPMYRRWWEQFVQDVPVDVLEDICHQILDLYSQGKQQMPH
T1 sequence (Q9NYV4 713-1052 K965R): as the sequence (Q9NYV4 713-1052) above, with K253R counted along it
T1 sequence (O75909 1-267 partner): as the sequence (O75909 1-267 partner limits assumed) above
T1 sequence (Q16531 whole entry): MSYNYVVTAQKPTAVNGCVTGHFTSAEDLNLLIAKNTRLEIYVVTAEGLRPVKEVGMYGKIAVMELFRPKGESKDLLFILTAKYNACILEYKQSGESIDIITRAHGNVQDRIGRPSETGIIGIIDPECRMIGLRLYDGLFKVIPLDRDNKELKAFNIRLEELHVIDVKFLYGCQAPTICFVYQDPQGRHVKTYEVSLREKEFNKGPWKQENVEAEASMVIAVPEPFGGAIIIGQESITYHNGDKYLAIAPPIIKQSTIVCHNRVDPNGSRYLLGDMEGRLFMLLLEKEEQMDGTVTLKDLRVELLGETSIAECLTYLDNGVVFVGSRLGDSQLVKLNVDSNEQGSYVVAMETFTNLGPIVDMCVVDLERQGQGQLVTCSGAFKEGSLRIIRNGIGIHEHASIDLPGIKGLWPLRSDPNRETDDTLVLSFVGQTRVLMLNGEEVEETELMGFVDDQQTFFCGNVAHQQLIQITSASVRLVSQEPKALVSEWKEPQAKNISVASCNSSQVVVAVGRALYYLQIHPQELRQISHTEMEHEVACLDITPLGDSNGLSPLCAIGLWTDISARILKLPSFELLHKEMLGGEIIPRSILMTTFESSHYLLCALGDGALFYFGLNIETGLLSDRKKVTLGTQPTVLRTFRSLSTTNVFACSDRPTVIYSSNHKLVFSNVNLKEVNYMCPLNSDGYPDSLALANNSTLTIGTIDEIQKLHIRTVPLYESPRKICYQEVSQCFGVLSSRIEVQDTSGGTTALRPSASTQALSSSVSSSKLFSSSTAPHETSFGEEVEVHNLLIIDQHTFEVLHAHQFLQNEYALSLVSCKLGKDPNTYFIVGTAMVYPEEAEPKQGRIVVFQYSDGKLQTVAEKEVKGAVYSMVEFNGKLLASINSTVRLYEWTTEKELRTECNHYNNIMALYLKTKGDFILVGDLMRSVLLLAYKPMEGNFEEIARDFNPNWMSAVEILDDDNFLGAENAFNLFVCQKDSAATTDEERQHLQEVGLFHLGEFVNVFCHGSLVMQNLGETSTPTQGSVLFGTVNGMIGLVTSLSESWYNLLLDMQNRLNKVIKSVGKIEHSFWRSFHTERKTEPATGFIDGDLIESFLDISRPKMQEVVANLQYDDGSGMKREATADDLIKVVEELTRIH

TR-FRET signal at compound concentration 0.468 nM (CDK12–cyclin K and DDB1; compound concentration 0.468 nM, raw replicate titration data): 0.2789 and 0.2869 and 0.2441 and 0.2388 | TR-FRET signal at compound concentration 2.16 nM (CDK12–cyclin K and DDB1; compound concentration 2.16 nM, raw replicate titration data): 0.4628 and 0.4735 and 0.4069 and 0.4155 | TR-FRET signal at compound concentration 3.6 nM (CDK12–cyclin K and DDB1; compound concentration 3.6 nM, raw replicate titration data): 0.8592 and 0.9781 and 0.8008 and 0.8631 | TR-FRET signal at compound concentration 7.92001 nM (CDK12–cyclin K and DDB1; compound concentration 7.92001 nM, raw replicate titration data): 1.943 and 2.09 and 1.796 and 1.964 | TR-FRET signal at compound concentration 15.84 nM (CDK12–cyclin K and DDB1; compound concentration 15.84 nM, raw replicate titration data): 3.635 and 3.77 and 3.448 and 3.586 | TR-FRET signal at compound concentration 30.96 nM (CDK12–cyclin K and DDB1; compound concentration 30.96 nM, raw replicate titration data): 4.1538 and 4.3056 and 4.1745 and 4.207 | TR-FRET signal at compound concentration 62.6401 nM (CDK12–cyclin K and DDB1; compound concentration 62.6401 nM, raw replicate titration data): 4.1015 and 4.249 and 4.2539 and 4.27 | TR-FRET signal at compound concentration 125.28 nM (CDK12–cyclin K and DDB1; compound concentration 125.28 nM, raw replicate titration data): 4.175 and 4.298 and 4.2336 and 4.275 | TR-FRET signal at compound concentration 244.8 nM (CDK12–cyclin K and DDB1; compound concentration 244.8 nM, raw replicate titration data): 4.152 and 4.298 and 4.309 and 4.217 | TR-FRET signal at compound concentration 993.601 nM (CDK12–cyclin K and DDB1; compound concentration 993.601 nM, raw replicate titration data): 4.169 and 4.339 and 4.296 and 4.306 | TR-FRET signal at compound concentration 2001.6 nM (CDK12–cyclin K and DDB1; compound concentration 2001.6 nM, raw replicate titration data): 4.114 and 4.419 and 4.291 and 4.3409 | EC50 (CDK12–cyclin K and DDB1; in vitro complex formation, 50 nM CDK12–cyclin K, 100 nM DDB1, text and figures): 9 ± 0.2 nM | EC50 (CDK12–cyclin K and DDB1; source data sheet correlations): 8.77 nM | DC50 [1]: 13 nM | CDK inhibitory selectivity, result in words (CDK12–cyclin K; Lanthascreen across CDK2/9/12): CDK12 selective | IC50 (CDK12–cyclin K; Supplementary Table 2, read-out: Lanthascreen IC50 [nM] CDK12): 289 nM | Lanthascreen raw signal, sheet CDK12 (CDK12–cyclin K; compound 0.038147 nM): 0.01361 and 0.01362 | Lanthascreen raw signal, sheet CDK12 (CDK12–cyclin K; compound 0.152588 nM): 0.01347 and 0.01332 | Lanthascreen raw signal, sheet CDK12 (CDK12–cyclin K; compound 0.610352 nM): 0.0127 and 0.0128 | Lanthascreen raw signal, sheet CDK12 (CDK12–cyclin K; compound 9.76563 nM): 0.01118 and 0.01013 | Lanthascreen raw signal, sheet CDK12 (CDK12–cyclin K; compound 39.0625 nM): 0.009017 and 0.009485 | Lanthascreen raw signal, sheet CDK12 (CDK12–cyclin K; compound 156.25 nM): 0.008554 and 0.0083 | Lanthascreen raw signal, sheet CDK12 (CDK12–cyclin K; compound 625 nM): 0.007301 and 0.007453 | Lanthascreen raw signal, sheet CDK12 (CDK12–cyclin K; compound 2500 nM): 0.006348 and 0.005959 | Lanthascreen raw signal, sheet CDK12 (CDK12–cyclin K; compound 10000 nM): 0.004442 and 0.004613 | IC50 (CDK9–cyclin T; Supplementary Table 2, read-out: Lanthascreen IC50 [nM] CDK9): 4480 nM | Lanthascreen TR-FRET signal (raw ratio), sheet CDK9 (CDK9–cyclin T; compound 0.038147 nM): 0.02012 and 0.0204 | Lanthascreen TR-FRET signal (raw ratio), sheet CDK9 (CDK9–cyclin T; compound 0.152588 nM): 0.02154 and 0.01902 | Lanthascreen TR-FRET signal (raw ratio), sheet CDK9 (CDK9–cyclin T; compound 0.610352 nM): 0.02155 and 0.01817 | Lanthascreen TR-FRET signal (raw ratio), sheet CDK9 (CDK9–cyclin T; compound 9.76563 nM): 0.02115 and 0.01877 | Lanthascreen TR-FRET signal (raw ratio), sheet CDK9 (CDK9–cyclin T; compound 39.0625 nM): 0.01878 and 0.01673 | Lanthascreen TR-FRET signal (raw ratio), sheet CDK9 (CDK9–cyclin T; compound 156.25 nM): 0.02006 and 0.01591 | Lanthascreen TR-FRET signal (raw ratio), sheet CDK9 (CDK9–cyclin T; compound 625 nM): 0.01306 and 0.01486 | Lanthascreen TR-FRET signal (raw ratio), sheet CDK9 (CDK9–cyclin T; compound 2500 nM): 0.01488 and 0.01061 | Lanthascreen TR-FRET signal (raw ratio), sheet CDK9 (CDK9–cyclin T; compound 10000 nM): 0.007693 and 0.006879 | Lanthascreen signal, sheet CDK2 (CDK2–cyclin A; Compound 0.038147 nM): 0.01344 and 0.01366 | Lanthascreen signal, sheet CDK2 (CDK2–cyclin A; Compound 0.152588 nM): 0.01349 and 0.01367 | Lanthascreen signal, sheet CDK2 (CDK2–cyclin A; Compound 0.610352 nM): 0.01404 and 0.01386 | Lanthascreen signal, sheet CDK2 (CDK2–cyclin A; Compound 9.76563 nM): 0.01422 and 0.01378 | Lanthascreen signal, sheet CDK2 (CDK2–cyclin A; Compound 39.0625 nM): 0.01396 and 0.01343 | Lanthascreen signal, sheet CDK2 (CDK2–cyclin A; Compound 156.25 nM): 0.01511 and 0.01391 | Lanthascreen signal, sheet CDK2 (CDK2–cyclin A; Compound 625 nM): 0.01354 and 0.01331 | Lanthascreen signal, sheet CDK2 (CDK2–cyclin A; Compound 2500 nM): 0.01311 and 0.01172 | Lanthascreen signal, sheet CDK2 (CDK2–cyclin A; Compound 10000 nM): 0.009843 and 0.008946 | IC50 (CDK2–cyclin A; Supplementary Table 2, read-out: Lanthascreen IC50 [nM] CDK2): 5730 nM
Compound: CC(C)n1cnc2c(NCc3nc4cc(Cl)c(Cl)cc4[nH]3)nc(N3CCOCC3)nc21 [DS18]
EC50 (HEK293T cells; Homo sapiens, HEK-293T, HEK293T viability, 72 h, compound alone, read-out: Cellular assays EC50): 101 nM | Toxicity rescue (HEK293T cells; MLN4924-mediated cytotoxicity rescue, 10 µM used where n.d.): 89%

— PMC10746543, “Design principles for cyclin K molecular glue degraders” (Nature Chemical Biology, 2023)
